Reference: US12491170B2, “Stable treprostinil prodrugs” (United Therapeutics Corporation, priority 2020, dated 2025)
Like-named read-outs stand apart in the source and are kept apart here.

Columns and labels:
[1] = rat
[2] = dog
[3] = Stability in liver microsomes, dog
[4] = Stability in cryopreserved hepatocytes, dog; settings: for AUC: dog
[5] = Stability in cryopreserved hepatocytes, rat; settings: for AUC: rat
[6] = Stability in cryopreserved hepatocytes, human; settings: for AUC: human
[7] = Stability in liver microsomes, rat
[8] = Stability in liver microsomes, human; settings: for AUC: human
[9] = Stability in human subcutaneous skin homogenate; settings: for AUC: human

CCCCCC(CCC1C(O)CC2Cc3c(cccc3OCC(=O)O)CC21)OC(=O)COc1ccc(O)cc1 (centres unmarked) [LIV]
AUC [1]: 46.08 µmol·min/L
AUC [2]: 39.99 µmol·min/L
Trep Concentration 0 min [3]: 0.307 µM
Trep Concentration 10 min [3]: 0.544 µM
Trep Concentration 20 min [3]: 0.678 µM
Trep Concentration 30 min [3]: 0.729 µM
Trep Concentration 60 min [3]: 0.777 µM
Trep Concentration (μM) 0 min [4]: 0.00351 µM
Trep Concentration (μM) 15 min [4]: 0.295 µM
Trep Concentration (μM) 30 min [4]: 0.273 µM
Trep Concentration (μM) 60 min [4]: 0.262 µM
Trep Concentration (μM) 120 min [4]: 0.262 µM
AUC [4]: 30.24 µmol·min/L
Trep Concentration (μM) 0 min [5]: 0.0862 µM
Trep Concentration (μM) 15 min [5]: 0.512 µM
Trep Concentration (μM) 30 min [5]: 0.426 µM
Trep Concentration (μM) 60 min [5]: 0.441 µM
Trep Concentration (μM) 120 min [5]: 0.455 µM
AUC [5]: 51.41 µmol·min/L
Trep Concentration (μM) 0 min [6]: 0.0156 µM
Trep Concentration (μM) 15 min [6]: 0.58 µM
Trep Concentration (μM) 30 min [6]: 0.47 µM
Trep Concentration (μM) 60 min [6]: 0.475 µM
Trep Concentration (μM) 120 min [6]: 0.461 µM
AUC [6]: 54.60 µmol·min/L
Trep Concentration 0 min [7]: 0.849 µM
Trep Concentration 10 min [7]: 0.784 µM
Trep Concentration 20 min [7]: 0.765 µM
Trep Concentration 30 min [7]: 0.709 µM
Trep Concentration 60 min [7]: 0.811 µM
Trep Concentration 0 min [8]: 0.908 µM
Trep Concentration 10 min [8]: 0.679 µM
Trep Concentration 20 min [8]: 0.564 µM
Trep Concentration 30 min [8]: 0.463 µM
Trep Concentration 60 min [8]: 0.338 µM
AUC [8]: 31.30 µmol·min/L
Trep Concentration 0 min [9]: 0 µM
Trep Concentration 30 min [9]: 0.486 µM
Trep Concentration 60 min [9]: 0.694 µM
Trep Concentration 120 min [9]: 0.848 µM
AUC [9]: 71.25 µmol·min/L

CCCCCC(CCC1C(O)CC2Cc3c(cccc3OCC(=O)O)CC21)OC(=O)CCC(=O)O (centres unmarked) [XX]
AUC [1]: 21.60 µmol·min/L
AUC [2]: 6.61 µmol·min/L
Trep Concentration 0 min [3]: 0.019 µM
Trep Concentration 10 min [3]: 0.044 µM
Trep Concentration 20 min [3]: 0.087 µM
Trep Concentration 30 min [3]: 0.11 µM
Trep Concentration 60 min [3]: 0.2 µM
Trep Concentration (μM) 0 min [4]: 0 µM
Trep Concentration (μM) 15 min [4]: 0.0459 µM
Trep Concentration (μM) 30 min [4]: 0.0824 µM
Trep Concentration (μM) 60 min [4]: 0.136 µM
Trep Concentration (μM) 120 min [4]: 0.198 µM
AUC [4]: 14.60 µmol·min/L
Trep Concentration (μM) 0 min [5]: 0.0112 µM
Trep Concentration (μM) 15 min [5]: 0.441 µM
Trep Concentration (μM) 30 min [5]: 0.542 µM
Trep Concentration (μM) 60 min [5]: 0.594 µM
Trep Concentration (μM) 120 min [5]: 0.609 µM
AUC [5]: 63.89 µmol·min/L
Trep Concentration (μM) 0 min [6]: 0 µM
Trep Concentration (μM) 15 min [6]: 0.1 µM
Trep Concentration (μM) 30 min [6]: 0.16 µM
Trep Concentration (μM) 60 min [6]: 0.246 µM
Trep Concentration (μM) 120 min [6]: 0.344 µM
AUC [6]: 26.49 µmol·min/L
Trep Concentration 0 min [7]: 0.12 µM
Trep Concentration 10 min [7]: 0.24 µM
Trep Concentration 20 min [7]: 0.29 µM
Trep Concentration 30 min [7]: 0.38 µM
Trep Concentration 60 min [7]: 0.54 µM
Trep Concentration 0 min [8]: 0.048 µM
Trep Concentration 10 min [8]: 0.087 µM
Trep Concentration 20 min [8]: 0.092 µM
Trep Concentration 30 min [8]: 0.1 µM
Trep Concentration 60 min [8]: 0.16 µM
AUC [8]: 6.43 µmol·min/L
Trep Concentration 0 min [9]: 0 µM
Trep Concentration 30 min [9]: 0 µM
Trep Concentration 60 min [9]: 0.019 µM
Trep Concentration 120 min [9]: 0.03 µM
AUC [9]: 1.76 µmol·min/L

CCCCCC(CCC1C(O)CC2Cc3c(cccc3OCC(=O)O)CC21)OC(N)=O (centres unmarked) [XLII]
AUC [1]: 18.22 µmol·min/L
AUC [2]: 18.91 µmol·min/L
Trep Concentration 0 min [3]: 0.335 µM
Trep Concentration 10 min [3]: 0.312 µM
Trep Concentration 20 min [3]: 0.311 µM
Trep Concentration 30 min [3]: 0.308 µM
Trep Concentration 60 min [3]: 0.323 µM
Trep Concentration (μM) 0 min [4]: 0.296 µM
Trep Concentration (μM) 15 min [4]: 0.242 µM
Trep Concentration (μM) 30 min [4]: 0.197 µM
Trep Concentration (μM) 60 min [4]: 0.155 µM
Trep Concentration (μM) 120 min [4]: 0.137 µM
AUC [4]: 21.37 µmol·min/L
Trep Concentration (μM) 0 min [5]: 0.33 µM
Trep Concentration (μM) 15 min [5]: 0.309 µM
Trep Concentration (μM) 30 min [5]: 0.299 µM
Trep Concentration (μM) 60 min [5]: 0.307 µM
Trep Concentration (μM) 120 min [5]: 0.3 µM
AUC [5]: 36.65 µmol·min/L
Trep Concentration (μM) 0 min [6]: 0.297 µM
Trep Concentration (μM) 15 min [6]: 0.274 µM
Trep Concentration (μM) 30 min [6]: 0.298 µM
Trep Concentration (μM) 60 min [6]: 0.275 µM
Trep Concentration (μM) 120 min [6]: 0.217 µM
AUC [6]: 31.93 µmol·min/L
Trep Concentration 0 min [7]: 0.322 µM
Trep Concentration 10 min [7]: 0.296 µM
Trep Concentration 20 min [7]: 0.314 µM
Trep Concentration 30 min [7]: 0.308 µM
Trep Concentration 60 min [7]: 0.29 µM
Trep Concentration 0 min [8]: 0.361 µM
Trep Concentration 10 min [8]: 0.297 µM
Trep Concentration 20 min [8]: 0.293 µM
Trep Concentration 30 min [8]: 0.273 µM
Trep Concentration 60 min [8]: 0.219 µM
AUC [8]: 16.45 µmol·min/L
Trep Concentration 0 min [9]: 0 µM
Trep Concentration 30 min [9]: 0 µM
Trep Concentration 60 min [9]: 0 µM
Trep Concentration 120 min [9]: 0 µM
AUC [9]: 0.00 µmol·min/L

CCCCCC(CCC1C(O)CC2Cc3c(cccc3OCC(=O)O)CC21)OC (centres unmarked) [XLV]
AUC [1]: 0.83 µmol·min/L
AUC [2]: 0.23 µmol·min/L
Trep Concentration 0 min [3]: 0 µM
Trep Concentration 10 min [3]: 0 µM
Trep Concentration 20 min [3]: 0.00323 µM
Trep Concentration 30 min [3]: 0.00529 µM
Trep Concentration 60 min [3]: 0.00637 µM
Trep Concentration (μM) 0 min [4]: 0 µM
Trep Concentration (μM) 15 min [4]: 0 µM
Trep Concentration (μM) 30 min [4]: 0 µM
Trep Concentration (μM) 60 min [4]: 0 µM
Trep Concentration (μM) 120 min [4]: 0 µM
AUC [4]: 0.00 µmol·min/L
Trep Concentration (μM) 0 min [5]: 0 µM
Trep Concentration (μM) 15 min [5]: 0.00378 µM
Trep Concentration (μM) 30 min [5]: 0.00483 µM
Trep Concentration (μM) 60 min [5]: 0.00537 µM
Trep Concentration (μM) 120 min [5]: 0.00521 µM
AUC [5]: 0.56 µmol·min/L
Trep Concentration (μM) 0 min [6]: 0 µM
Trep Concentration (μM) 15 min [6]: 0.0417 µM
Trep Concentration (μM) 30 min [6]: 0.0533 µM
Trep Concentration (μM) 60 min [6]: 0.0724 µM
Trep Concentration (μM) 120 min [6]: 0.0734 µM
AUC [6]: 7.29 µmol·min/L
Trep Concentration 0 min [7]: 0 µM
Trep Concentration 10 min [7]: 0.00607 µM
Trep Concentration 20 min [7]: 0.00992 µM
Trep Concentration 30 min [7]: 0.0162 µM
Trep Concentration 60 min [7]: 0.023 µM
Trep Concentration 0 min [8]: 0.00583 µM
Trep Concentration 10 min [8]: 0.104 µM
Trep Concentration 20 min [8]: 0.156 µM
Trep Concentration 30 min [8]: 0.21 µM
Trep Concentration 60 min [8]: 0.292 µM
AUC [8]: 11.21 µmol·min/L
Trep Concentration 0 min [9]: 0 µM
Trep Concentration 30 min [9]: 0 µM
Trep Concentration 60 min [9]: 0 µM
Trep Concentration 120 min [9]: 0 µM
AUC [9]: 0.00 µmol·min/L
